Data published in US8507533B2, “Glucagon receptor modulators” (Pfizer Inc., priority 2011, dated 2013).

Experiments:
human glucagon receptor [1] = target: T1, human glucagon receptor (Homo sapiens (Human), UniProt P47871); experiment: Human Glucagon SPA Assay (binding of [125I]Glucagon-Cex); conditions: membrane from chem-1 cells stably transfected with the human glucagon receptor, Ki by Cheng-Prusoff equation
Description: The Glucagon SPA assay is used to determine the ability of test compounds to block the binding of glucagon-cex to the glucagon receptor. Test compounds are re-suspended and serially diluted in 100% DMSO. 1 μl of test compound at the desired concentrations is spotted into the appropriate wells of 96 well low binding white clear bottom plate (Corning). 1 μl of DMSO is spotted into total binding wells. 1 μl of a known glucagon antagonist at a concentration of 20 μM is added to non specific binding wells. […] All assay ingredients with the exception of test compounds are re-suspended in the following buffer; 50 mM Hepes pH 7.4; 5 mM MgCl2; 1 mM CaCl; 5% glycerol and 0.2% BSA. Following a 6-10 hr incubation at room temperature the amount of hot ligand bound to the cell membranes is determined by reading the plates on a Wallac Trilux radioactive emission detector. Data is analyzed using Pfizer's Data analysis program. IC50 values are then determined from the generated sigmoidal dose response curves. Ki values are calculated using Cheng-Prusoff equation. N is the number of times the compound was assayed.

human glucagon receptor [2] = target: T1, human glucagon receptor; experiment: Glucagon cAMP Assay (Cisbio cAMP detection); format: cell-based; conditions: CHOK1 cells stably transfected with the human glucagon receptor; block of glucagon induced cAMP production; Kb by modified Cheng-Prusoff equation

T1 sequence (P47871 26-477): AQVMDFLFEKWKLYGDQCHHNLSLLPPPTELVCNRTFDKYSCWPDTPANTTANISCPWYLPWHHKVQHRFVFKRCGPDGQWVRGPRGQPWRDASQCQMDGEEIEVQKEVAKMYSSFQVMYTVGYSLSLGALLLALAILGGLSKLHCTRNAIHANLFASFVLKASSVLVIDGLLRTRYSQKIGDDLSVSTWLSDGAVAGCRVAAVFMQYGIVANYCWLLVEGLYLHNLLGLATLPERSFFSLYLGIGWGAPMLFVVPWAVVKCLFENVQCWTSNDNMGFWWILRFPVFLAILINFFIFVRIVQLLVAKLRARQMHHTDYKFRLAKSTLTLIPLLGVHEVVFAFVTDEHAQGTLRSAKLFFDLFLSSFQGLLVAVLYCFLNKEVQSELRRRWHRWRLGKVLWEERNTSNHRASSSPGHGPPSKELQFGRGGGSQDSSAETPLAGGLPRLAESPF

Row | SMILES | Ki (human glucagon receptor [1]) [nM] | Kb (human glucagon receptor [2]) [nM]
1 | CC1(C)CC([C@@H](Nc2ccc(-n3cnc(C(F)(F)F)c3)nc2)c2ccc(C(=O)NCCC(=O)O)cc2)C1 (single isomer, unassigned) [Example 134, 3-(4-((3,3-dimethylcyclobutyl)(6-(4-(trifluoromethyl)-1H-imidazol-1-yl)pyridin-3-ylamino)methyl)benzamido)propanoic acid] | 110 | 876
2 | CC1(C)CC([C@@H](Nc2ccc(-n3cnc(C(F)(F)F)c3)nc2)c2ccc(C(=O)NCCC(=O)O)cc2)C1 (single isomer, unassigned) [Example 135, 3-(4-((3,3-dimethylcyclobutyl)(6-(4-(trifluoromethyl)-1H-imidazol-1-yl)pyridin-3-ylamino)methyl)benzamido)propanoic acid] | 35 | 28
3 | CCC[C@@H](Nc1ccc(-n2cc(C(C)(C)C)cn2)nc1)c1ccc(C(=O)NCCC(=O)O)cc1 (single isomer, unassigned) [Example 136, 3-(4-(1-(6-(4-tert-butyl-1H-pyrazol-1-yl)pyridin-3-ylamino)butyl)benzamido)propanoic acid] | 30.2 | 222
4 | CC(C)C[C@H](Nc1ccc(C(=O)NCCC(=O)O)cn1)c1ccc(-n2cc(C(F)(F)F)cn2)nc1 (single isomer, unassigned) [Example 142, 3-(6-(3-methyl-1-(6-(4-(trifluoromethyl)-1H-pyrazol-1-yl)pyridin-3-yl)butylamino)nicotinamido)propanoic acid] | 636 | 883
5 | CC(C)C[C@H](Nc1ccc(C(=O)NCCC(=O)O)cn1)c1ccc(-n2cc(C(F)(F)F)cn2)nc1 (single isomer, unassigned) [Example 143, 3-(6-(3-methyl-1-(6-(4-(trifluoromethyl)-1H-pyrazol-1-yl)pyridin-3-yl)butylamino)nicotinamido)propanoic acid] | 57.4 | 179
6 | CCCC(Oc1cc(C)c(-n2cc(Cl)cn2)c(C)c1)c1ccc(C(=O)NCCC(=O)O)cc1 (single isomer, unassigned) [Example 145, 3-(4-(1-(4-(4-chloro-1H-pyrazol-1-yl)-3,5-dimethylphenoxy)butyl)benzamido)propanoic acid] | 93.2 | 156
7 | CC1(C)CC(C(Oc2cnc(-n3cc(C(F)(F)F)cn3)nc2)c2ccc(C(=O)NCCC(=O)O)cc2)C1 (single isomer, unassigned; isomer 1) [Example 155, 3-(4-((3,3-dimethylcyclobutyl)(2-(4-(trifluoromethyl)-1H-pyrazol-1-yl)pyrimidin-5-yloxy)methyl)benzamido)propanoic acid, Isomer 1] | 94.9 | 313
8 | CC1(C)CC(C(Oc2cnc(-n3cc(C(F)(F)F)cn3)nc2)c2ccc(C(=O)NCCC(=O)O)cc2)C1 (single isomer, unassigned; isomer 1) [Example 156, 3-(4-((3,3-dimethylcyclobutyl)(2-(4-(trifluoromethyl)-1H-pyrazol-1-yl)pyrimidin-5-yloxy)methyl)benzamido)propanoic acid, Isomer 1] | 251 | 246
9 | CCCC(Nc1ccc(-n2cc(CC)c(C)n2)nc1)c1ccc(C(=O)NCCC(=O)O)cc1 (single isomer, unassigned; isomer 1) [Example 166, 3-(4-(1-(6-(4-ethyl-3-methyl-1H-pyrazol-1-yl)pyridin-3-ylamino)butyl)benzamido)propanoic acid, Isomer 1] | 91.5 | 94.8
10 | Cc1cc(C(Nc2ccc(C(=O)NCCC(=O)O)cn2)C2CCCC2)cc(C)c1-n1cc(C(F)(F)F)cn1 (single isomer, unassigned; isomer 1) [Example 170, (3-(6-((cyclopentyl(3,5-dimethyl-4-(4-(trifluoromethyl)-1H-pyrazol-1-yl)phenyl)methyl)amino)nicotinamido)propanoic acid, Isomer 1] | 224 | 1300
11 | CC1(C)CC([C@H](Nc2ccc(-n3cc(C4CC4)cn3)nc2)c2ccc(C(=O)NCCC(=O)O)cc2)C1 (single isomer, unassigned; isomer 1) [Example 174, N-{-4-[{[6-(4-cyclopropyl-1H-pyrazol-1-yl)pyridin-3-yl]amino}(3,3-dimethylcyclobutyl)methyl]benzoyl}-beta-alanine, Isomer 1] | 57 | 252
12 | CC(C)(C)[C@H](Nc1ccc(-n2cnc(C(F)(F)F)c2)nc1)c1ccc(C(=O)NCCC(=O)O)cc1 (single isomer, unassigned; isomer 1) [Example 182, 3-(4-(2,2-dimethyl-1-((6-(4-(trifluoromethyl)-1H-imidazol-1-yl)pyridin-3-yl)amino)propyl)benzamido)propanoic acid, Isomer 1] | 156 | 424
13 | CC1(C)CC(C(Nc2cnc(-n3cc(C(F)(F)F)cn3)nc2)c2ccc(C(=O)NCCC(=O)O)cc2)C1 (single isomer, unassigned; isomer 2) [Example 158, 3-(4-((3,3-dimethylcyclobutyl)(2-(4-(trifluoromethyl)-1H-pyrazol-1-yl)pyrimidin-5-ylamino)methyl)benzamido)propanoic acid, Isomer 2] | 41 | 155
14 | CCCC(Nc1ccc(-n2cc(CC)c(C)n2)nc1)c1ccc(C(=O)NCCC(=O)O)cc1 (single isomer, unassigned; isomer 2) [Example 167, 3-(4-(1-(6-(4-ethyl-3-methyl-1H-pyrazol-1-yl)pyridin-3-ylamino)butyl)benzamido)propanoic acid, Isomer 2] | 414 | 1140

Now those with a lower Ki (human glucagon receptor [1]), led by results:

Row | Ki (human glucagon receptor [1]) [nM] | Kb (human glucagon receptor [2]) [nM] | SMILES
15 | 20.2 | 27 | CCC[C@@H](Nc1ccc(-n2cc(C(C)(C)C)cn2)nc1)c1ccc(C(=O)NCCC(=O)O)cc1 (single isomer, unassigned) [Example 137, 3-(4-(1-(6-(4-tert-butyl-1H-pyrazol-1-yl)pyridin-3-ylamino)butyl)benzamido)propanoic acid]
16 | 5.75 | 40 | Cc1cc(OC(c2ccc(C(=O)NCCC(=O)O)cc2)C2CCC2)cc(C)c1-n1cc(C(F)(F)F)cn1 (single isomer, unassigned) [Example 138, 3-(4-(cyclobutyl(3,5-dimethyl-4-(4-(trifluoromethyl)-1H-pyrazol-1-yl)phenoxy)methyl)benzamido)propanoic acid]
17 | 9.05 | 21 | O=C(O)CCNC(=O)c1ccc([C@@H](Nc2ccc(-n3cc(C(F)(F)F)cn3)nc2)C2CCCCC2)cc1 (single isomer, unassigned) [Example 146, 3-(4-(cyclohexyl(6-(4-(trifluoromethyl)-1H-pyrazol-1-yl)pyridine-3-ylamino)methyl)benzamido)propanoic acid]
18 | 26.7 | 343 | O=C(O)CCNC(=O)c1ccc([C@@H](Nc2ccc(-n3cc(C(F)(F)F)cn3)nc2)C2CCCCC2)cc1 (single isomer, unassigned) [Example 147, 3-(4-(cyclohexyl(6-(4-(trifluoromethyl)-1H-pyrazol-1-yl)pyridine-3-ylamino)methyl)benzamido)propanoic acid]
19 | 5.55 | 18.6 | CC1(C)CC(C(Nc2cnc(-n3cc(C(F)(F)F)cn3)nc2)c2ccc(C(=O)NCCC(=O)O)cc2)C1 (single isomer, unassigned; isomer 1) [Example 157, 3-(4-((3,3-dimethylcyclobutyl)(2-(4-(trifluoromethyl)-1H-pyrazol-1-yl)pyrimidin-5-ylamino)methyl)benzamido)propanoic acid, Isomer 1]
20 | 29 | 111 | CCCC(Nc1ccc(-n2cc(-c3ccccc3)cn2)nc1)c1ccc(C(=O)NCCC(=O)O)cc1 (single isomer, unassigned; isomer 1) [Example 160, 3-(4-(1-(6-(4-phenyl-1H-pyrazol-1-yl)pyridine-3-ylamino)butyl)benzamido)propanoic acid, Isomer 1]
21 | 8.18 | 59.9 | O=C(O)CCNC(=O)c1ccc([C@H](CCC(F)(F)F)Nc2ccc(-n3cc(C(F)(F)F)cn3)nc2)cc1 (single isomer, unassigned; isomer 1) [Example 172, N-{4-[4,4,4-trifluoro-1-({6-[4-(trifluoromethyl)-1H-pyrazol-1-yl]pyridin-3-yl}amino)butyl]benzoyl}-beta-alanine, Isomer 1]
22 | 22.1 | 134 | CC(C)(C)[C@H](Nc1ccc(-n2cc(C(F)(F)F)cn2)nc1)c1ccc(C(=O)NCCC(=O)O)cc1 (single isomer, unassigned; isomer 1) [Example 179, 3-(4-(2,2-dimethyl-1-((6-(4-(trifluoromethyl)-1H-pyrazol-1-yl)pyridin-3-yl)amino)propyl)benzamido)propanoic acid, Isomer 1]
23 | 29.3 | 11.7 | Cc1nn(-c2ccc(N[C@H](c3ccc(C(=O)NCCC(=O)O)cc3)C3CCCC3)cn2)cc1Cl (single isomer, unassigned; isomer 1) [Example 191, 3-(4-((6-(4-chloro-3-methyl-1H-pyrazol-1-yl)pyridin-3-ylamino)(cyclopentyl)methyl)benzamido)propanoic acid, Isomer 1]
24 | 25.7 | 9.49 | CCCC(Nc1ccc(-n2cc(-c3ccccc3)cn2)nc1)c1ccc(C(=O)NCCC(=O)O)cc1 (single isomer, unassigned; isomer 2) [Example 161, 3-(4-(1-(6-(4-phenyl-1H-pyrazol-1-yl)pyridine-3-ylamino)butyl)benzamido)propanoic acid, Isomer 2]
